Data taken from US12371400B2, “Cathepsin inhibitors” (ACADEMISCH ZIEKENHUIS LEIDEN (H.O.D.N. LUMC), priority 2017, dated 2025).
“Also recorded” adds a separate entry of the source. Like-named read-outs stand apart in the source and are kept apart here.

Experiments:
hCatK [1] = target: T1, hCatK (Homo sapiens, UniProt P43235); experiment: In vitro inhibition of purified human Cathepsin K (fluorogenic substrate Z-FR-AMC); type: biochemical; conditions: for IC50: purified human Cathepsin, 30 min incubation with inhibitor, mean ± SD, triplicate
T1 sequence (P43235 115-329): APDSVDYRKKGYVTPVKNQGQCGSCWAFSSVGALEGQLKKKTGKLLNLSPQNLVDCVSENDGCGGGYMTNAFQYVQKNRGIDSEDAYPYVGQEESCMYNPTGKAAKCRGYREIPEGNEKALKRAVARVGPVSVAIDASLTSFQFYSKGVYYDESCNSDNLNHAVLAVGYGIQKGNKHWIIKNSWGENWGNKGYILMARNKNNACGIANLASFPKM
Method: (§1) Cathepsin (e.g. Cathepsin K/L/V/S/B), in particular purified human Cathepsin, was diluted in freshly prepared reaction buffer consisting of 50 mM MES pH 5.5, 25 mM EDTA and 2.5 mM DTT. 0.05% Tween20 (v/v) may be added to the reaction buffer of the Cathepsin K.
(§2) Activity assays may be conducted in a suitable manner. In the experiments described herein, the assays were typically conducted in Corning 3820 Low Volume 384 Well Assay Plate with a final assay volume of 20 μL. Plates were shaken at 600 rpm for 1 minute and centrifuged at 1000 rpm for 1 minute prior to incubation. Cathepsin activity was quantified using synthetic fluorogenic peptide substrate Z-FR-AMC (Cath K, L, V), Z-RR-AMC (Cath B) or Z-FVR-AMC (Cath S). Fluorescence intensity (λex=350 nm, λem=440 nm) was measured every 2 minutes in arbitrary units (A.U.) on a CLARIOstar (BMG Labtech) microplate reader and values were converted to product formation [AMC]. […] Measurements were performed in triplicate.
(§3) Inhibitors (200 nL, 100× final concentration in DMSO) were diluted in reaction buffer (10 μL). Purified human Cathepsin (5 μL, 4× final concentration) was added and the reaction mixture was incubated for 30 min at room temperature. Fluorogenic substrate (5 μL, 4× final concentration) was added and fluorescence intensity was measured every 2 minutes for 30-90 minutes.
(§4) The potency of the compounds as CatK inhibitors was assessed in an in vitro inhibition assay on purified human CatK (Table 2). Cathepsin was incubated with inhibitor, and the hydrolysis of substrate was initiated by addition of substrate.

hCatS = hCatS (Homo sapiens, UniProt P25774); experiment: In vitro inhibition of purified human Cathepsin S (Z-FVR-AMC); type: biochemical; conditions: 30 min incubation with inhibitor, mean ± SD, triplicate
Sequence of hCatS (P25774 115-331): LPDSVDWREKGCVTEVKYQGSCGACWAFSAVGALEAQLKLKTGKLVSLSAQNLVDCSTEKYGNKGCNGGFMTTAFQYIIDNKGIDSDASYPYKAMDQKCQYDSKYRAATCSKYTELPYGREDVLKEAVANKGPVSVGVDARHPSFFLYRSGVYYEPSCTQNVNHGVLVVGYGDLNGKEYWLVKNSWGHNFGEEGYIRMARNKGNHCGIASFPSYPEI
Method: as §1, §2, §3, §4

hCatV = hCatV (Homo sapiens, UniProt O60911); experiment: In vitro inhibition of purified human Cathepsin V (Z-FR-AMC); type: biochemical; conditions: 30 min incubation with inhibitor, mean ± SD, triplicate
Sequence of hCatV (O60911 114-334): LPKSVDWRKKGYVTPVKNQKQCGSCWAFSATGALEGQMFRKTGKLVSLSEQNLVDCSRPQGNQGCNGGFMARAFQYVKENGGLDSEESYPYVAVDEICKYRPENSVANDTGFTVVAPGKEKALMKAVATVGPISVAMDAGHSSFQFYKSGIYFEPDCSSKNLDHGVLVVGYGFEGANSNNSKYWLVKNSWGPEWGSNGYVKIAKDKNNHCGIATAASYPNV
Method: as §1
as §2, with “In the experiments described herein, the assays were typically conducted in Corning 3820 Low Volume 384 Well Assay Plate with a final assay volume of 20 μL.” left out
as §3, §4

hCatB = hCatB (Homo sapiens, UniProt P07858); experiment: In vitro inhibition of purified human Cathepsin B (Z-RR-AMC); type: biochemical; conditions: 30 min incubation with inhibitor, mean ± SD, triplicate
Method: as §1
as §2, with “In the experiments described herein, the assays were typically conducted in Corning 3820 Low Volume 384 Well Assay Plate with a final assay volume of 20 μL.” left out
as §3, §4

hCatL = hCatL (Homo sapiens, UniProt P07711); experiment: In vitro inhibition of purified human Cathepsin L (Z-FR-AMC); type: biochemical; conditions: 30 min incubation with inhibitor, mean ± SD, triplicate
Sequence of hCatL (P07711 114-333): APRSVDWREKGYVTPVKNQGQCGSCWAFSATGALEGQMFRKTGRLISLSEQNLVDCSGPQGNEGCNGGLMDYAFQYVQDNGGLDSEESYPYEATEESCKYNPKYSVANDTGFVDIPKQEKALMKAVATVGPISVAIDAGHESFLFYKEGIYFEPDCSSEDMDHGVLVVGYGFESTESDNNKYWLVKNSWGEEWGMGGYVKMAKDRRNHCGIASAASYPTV
Method: as §1
as §2, with “In the experiments described herein, the assays were typically conducted in Corning 3820 Low Volume 384 Well Assay Plate with a final assay volume of 20 μL.” left out
as §3, §4

Cathepsin K = target: T2, Cathepsin K (Homo sapiens, UniProt P43235); experiment: LC-MS of intact CatK and CatK-inhibitor complexes; type: binding
T2 sequence (P43235 115-329): T1 sequence (P43235 115-329)
Method: The masses were determined from deconvoluted electrospray ionization mass spectra of CatK complexes. FIG. 4A to FIG. 4E each provide the result for a sample. In each of these FIGS. 4A to 4E the first panel provides the UPLC chromatogram, the second panel provides the electrospray ionization mass spectrum, and the third panel provides the corresponding deconvoluted electrospray ionization mass spectrum (average isotopes) with an indication of the measured mass of the predominant species. FIG. 4A provides the results obtained for intact CatK. FIG. 4B provides the results obtained for CatK.
Cathepsin K (3 μM) in reaction buffer ([…]) was incubated with inhibitor (100 μM) at 37° C. for 6 hours prior to analysis. 1 μL injections of the sample were made onto a XEVO-G2XSQTOF#YEA928 UPLC-MS system with a Waters Acquity CM detector. Chromatographic separation was carried out on a ACQUITY UPLC® Protein BEH C4 Column over a 12 minute gradient elution of 2% to 100% acetonitrile in water (0.1% formic acid) at a flow rate of 0.500 mL/min. For the first 4 minutes the flow was diverted to the waste to avoid contamination of the MS with high concentrations of buffer components. After 4 minutes, the elution flow was ionized with an ESI ionization source and measured on a XEVO-G2XSQTOF. The results were analyzed using MassLynx V4.1. The total mass of the complex was obtained by deconvolution of electrospray ionization mass spectrum envelope (average isotopes) with the MaxEnt1 function.
Cathepsin K was incubated with ODN, 4, 5 or 6 for 6 h to allow full covalent bond formation and submitted for measurement without any digestion steps, according to the method for LC-MS for intact CatK and CatK-inhibitor complexes described in the assays section above.

hCatK [2] = target: T1, hCatK; experiment: Jump dilution assay for reversibility of hCatK inhibition; type: biochemical; conditions: 300× dilution into fluorogenic substrate solution
Method: FIG. 3 provides a schematic overview of a jump dilution assay. A) Dose response curve for a 300-fold dilution of inhibitor concentration from full inhibition to full activity. B) Protocol and concentrations for incubation and dilution. C) Progress curves for hCatK proteolytic activity with inhibitor compounds ODN, 4, 5, 6 after dilution.
Reversibility of protease inhibition by an inhibitor may be assessed in a jump dilution assay. An exemplary jump dilution assay is provided in R. A. Copeland, A. Basavapathruni, M. Moyer, M. P. Scott, Anal. Biochem. 2011, 416, 206. In a jump dilution assay the protease (e.g. CatK) is incubated with inhibitor at high concentration to allow full active site occupation, and subsequently diluted, e.g. 300×, into fluorogenic substrate solution resulting in an inhibitor concentration corresponding with full protease activity. The hydrolysis of fluorogenic substrate is monitored over an extended time period, e.g. at least 60 minutes. […] The assay results may be compared with the results using a known irreversible inhibitor of the protease as a control. E-64 represents an established pan-Cathepsin irreversible inhibitor, suitable for use as a positive control with most cysteine protease Cathepsins.
Reversibility of hCatK inhibition was assessed in a jump dilution assay. Established pan-Cathepsin inhibitor E-64 was taken along as a control for irreversible inhibition. Purified hCatK was incubated with inhibitors at high concentration to allow full active site occupation, and subsequently diluted 300× into fluorogenic substrate solution resulting in an inhibitor concentration corresponding with full activity (FIG. 3).

hCatK [3] = target: T1, hCatK; experiment: Kinetic evaluation of covalent inhibitors on purified hCatK; type: biochemical; conditions: 100 pM hCatK, 4 μM Z-FR-AMC, 26° C., reaction started by addition of CatK; for Ki: read-out: Kl
Method: The reaction kinetics of irreversible covalent inhibitor compounds may be assed in the following manner. Inhibitors (200 nL, 100× final concentration in DMSO) were diluted in reaction buffer (10 μL). Fluorogenic substrate (5 μL, 4× final concentration) was added and the reaction was started by addition of Cathepsin (5 μL, 4× final concentration). Fluorescence intensity was measured every 2 minutes for 60 minutes and fitted to equation I to obtain the Kobs. The obtained values were plotted against the inhibitor concentration and fitted to equation II to obtain kinetic parameters Kinact (rate of covalent bond formation) and Ki.
Kinetic evaluation of irreversible covalent inhibitors was conducted by following the progress curve of inhibition when the hydrolysis of substrate is started by addition of the enzyme (instead of incubating the protease with the inhibitor prior to addition of the substrate). From this curve the maximum rate of covalent bond formation (Kinact) could be determined (Table 4).

IC50 (hCatK [1]) [nM]	IC50 (hCatS) [nM]	IC50 (hCatV) [nM]	IC50 (hCatB) [nM]	IC50 (hCatL) [nM]	Measured mass complex (Cathepsin K; CatK 3 μM, inhibitor 100 μM, 37° C., 6 h, deconvoluted ESI mass)	selectivity for CatK over structurally related human Cathepsins (hCatK [1]; in words, from Table 2)	reversibility of hCatK inhibition (hCatK [2])	kinact/Kl (hCatK [3]) [M⁻¹ s⁻¹]	Ki (hCatK [3]) [nM]	kinact (hCatK [3]; read-out: kinact (converted)) [s⁻¹]	kinact (hCatK [3]) [s⁻¹]	SMILES	formation of covalent CatK-inhibitor complex (Cathepsin K; 6 h incubation, intact protein LC-MS)
0.57 ± 0.009	17.8 ± 0.303	909 ± 105	–	–	–	–	–	–	–	–	–	CC(C)(F)C[C@H](N[C@@H](c1ccc(-c2ccc(S(C)(=O)=O)cc2)cc1)C(F)(F)F)C(=O)NCC#N [Compound 2, (S)—N-(cyanomethyl)-4-fluoro-4-methyl-2-(((S)-2,2,2-trifluoro-1-(4′-(methylsulfonyl)-[1,1′-biphenyl]-4-yl)ethyl)amino)pentanamide, reference compound]	–
26200 ± 2240	> 100000	> 100000	> 100000	> 100000	–	–	–	–	–	–	–	C#CC1(NC(=O)[C@H](CC(C)(C)F)N[C@@H](c2ccc(-c3ccc(S(C)(=O)=O)cc3)cc2)C(F)(F)F)CC1 [Compound 3, (S)—N-(1-ethynylcyclopropyl)-4-fluoro-4-methyl-2-(((S)-2,2,2-trifluoro-1-(4′-(methylsulfonyl)-[1,1′-biphenyl]-4-yl)ethyl)amino)pentanamide]	–
46.9 ± 1.81	55.4 ± 2.94	16.2 ± 0.883	98.6 ± 5.88	102 ± 5.14	24296	all selectivity is lost	irreversible	1650	193	0.000317	–	CC(C)(F)C[C@H](N[C@@H](c1ccc(-c2ccc(S(C)(=O)=O)cc2)cc1)C(F)(F)F)C(=O)NCC#CBr [Compound 6, (S)—N-(3-bromoprop-2-yn-1-yl)-4-fluoro-4-methyl-2-(((S)-2,2,2-trifluoro-1-(4′-(methylsulfonyl)-[1,1′-biphenyl]-4-yl)ethyl)amino)pentanamide]	formation of a covalent hCatK—inhibitor complex; also recorded: covalent complex formed
1.9 ± 0.032	–	–	–	3.5 ± 0.22	–	–	–	117000	11.4	–	0.00135	CC(C)C[C@H](NC(=O)[C@H]1O[C@@H]1C(=O)O)C(=O)NCCCCN=C(N)N [Compound E-64, reference compound]	–
